Results taken from the kinase profiling compilation of Christmann-Franck et al. (2016).

Tests used:
Settings in all cases: compound 10.0 µM
ACVR1 (human) = ACVR1 (human) (UniProt Q04771)
ACVR1B (human) = ACVR1B (human) (UniProt P36896)
ACVRL1 (human) = ACVRL1 (human) (UniProt P37023)
CAMK1D (human) = CAMK1D (human) (UniProt Q8IU85)
CAMK2A (human) = CAMK2A (human) (UniProt Q9UQM7)
CAMK2D (human) = CAMK2D (human) (UniProt Q13557)
CDK2 CCNA2 (human) = CDK2 CCNA2 (human) (UniProt P24941+P20248)
CHUK (human) = CHUK (human) (UniProt O15111)
CLK4 (human) = CLK4 (human) (UniProt Q9HAZ1)
CLK4 (human), sequence (Q9HAZ1 whole entry, looked up): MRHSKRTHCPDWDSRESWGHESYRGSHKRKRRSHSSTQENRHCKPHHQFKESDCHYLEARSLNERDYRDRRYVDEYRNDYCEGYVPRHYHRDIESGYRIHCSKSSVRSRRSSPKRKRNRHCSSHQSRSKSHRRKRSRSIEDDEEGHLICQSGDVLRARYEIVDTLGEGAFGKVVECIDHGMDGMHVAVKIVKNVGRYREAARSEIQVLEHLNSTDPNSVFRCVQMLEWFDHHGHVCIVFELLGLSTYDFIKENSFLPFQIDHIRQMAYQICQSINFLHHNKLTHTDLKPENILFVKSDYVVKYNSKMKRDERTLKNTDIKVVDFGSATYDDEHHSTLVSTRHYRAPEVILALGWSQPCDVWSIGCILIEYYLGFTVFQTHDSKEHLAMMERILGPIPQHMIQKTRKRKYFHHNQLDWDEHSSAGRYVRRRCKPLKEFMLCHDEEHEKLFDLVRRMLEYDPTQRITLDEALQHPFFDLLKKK

CSNK1A1 (human) = CSNK1A1 (human) (UniProt P48729)
CSNK1E (human) = CSNK1E (human) (UniProt P49674)
CSNK1G3 (human) = CSNK1G3 (human) (UniProt Q9Y6M4)
DAPK2 (human) = DAPK2 (human) (UniProt Q9UIK4)
DYRK2 (human) = DYRK2 (human) (UniProt Q92630)
EPHA1 (human) = EPHA1 (human) (UniProt P21709)
EPHA7 (human) = EPHA7 (human) (UniProt Q15375)
EPHA7 (human), sequence (Q15375 whole entry, looked up): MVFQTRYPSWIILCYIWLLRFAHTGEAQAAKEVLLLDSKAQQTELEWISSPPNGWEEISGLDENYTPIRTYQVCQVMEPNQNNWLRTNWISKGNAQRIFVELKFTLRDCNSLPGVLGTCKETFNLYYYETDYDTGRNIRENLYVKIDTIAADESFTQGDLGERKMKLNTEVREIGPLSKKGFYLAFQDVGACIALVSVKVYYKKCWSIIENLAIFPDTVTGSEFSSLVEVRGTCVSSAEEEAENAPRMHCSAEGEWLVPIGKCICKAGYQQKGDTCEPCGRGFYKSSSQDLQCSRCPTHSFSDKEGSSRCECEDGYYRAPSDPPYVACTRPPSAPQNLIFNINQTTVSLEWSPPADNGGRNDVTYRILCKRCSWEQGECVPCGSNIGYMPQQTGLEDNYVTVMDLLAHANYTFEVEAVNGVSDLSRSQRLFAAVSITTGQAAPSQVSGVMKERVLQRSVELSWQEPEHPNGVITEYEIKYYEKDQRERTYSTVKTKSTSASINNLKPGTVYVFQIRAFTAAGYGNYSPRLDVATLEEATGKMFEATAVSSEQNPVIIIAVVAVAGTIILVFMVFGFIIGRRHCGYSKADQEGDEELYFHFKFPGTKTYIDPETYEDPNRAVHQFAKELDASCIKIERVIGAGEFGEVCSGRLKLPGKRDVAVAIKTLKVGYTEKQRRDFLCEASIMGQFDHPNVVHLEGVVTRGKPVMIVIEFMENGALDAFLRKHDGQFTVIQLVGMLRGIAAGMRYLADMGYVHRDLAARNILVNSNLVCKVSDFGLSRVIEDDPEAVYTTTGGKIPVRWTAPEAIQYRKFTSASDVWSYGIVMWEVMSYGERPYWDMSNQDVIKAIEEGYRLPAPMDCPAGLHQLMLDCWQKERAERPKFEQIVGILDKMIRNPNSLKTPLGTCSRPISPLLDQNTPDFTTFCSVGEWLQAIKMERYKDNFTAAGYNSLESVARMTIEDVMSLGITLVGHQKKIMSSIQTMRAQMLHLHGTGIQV

FGFR2 (human) = FGFR2 (human) (UniProt P21802)
IKBKE (human) = IKBKE (human) (UniProt Q14164)
INSR (human) = INSR (human) (UniProt P06213)
KDR (human) = KDR (human) (UniProt P35968)
KIT (human) = KIT (human) (UniProt P10721)
MAP2K2 (human) = MAP2K2 (human) (UniProt P36507)
MAP2K6 (human) = MAP2K6 (human) (UniProt P52564)
MAP3K11 (human) = MAP3K11 (human) (UniProt Q16584)
MAPK14 (human) = MAPK14 (human) (UniProt Q16539)
MAPK14 (human), sequence (Q16539 whole entry, looked up): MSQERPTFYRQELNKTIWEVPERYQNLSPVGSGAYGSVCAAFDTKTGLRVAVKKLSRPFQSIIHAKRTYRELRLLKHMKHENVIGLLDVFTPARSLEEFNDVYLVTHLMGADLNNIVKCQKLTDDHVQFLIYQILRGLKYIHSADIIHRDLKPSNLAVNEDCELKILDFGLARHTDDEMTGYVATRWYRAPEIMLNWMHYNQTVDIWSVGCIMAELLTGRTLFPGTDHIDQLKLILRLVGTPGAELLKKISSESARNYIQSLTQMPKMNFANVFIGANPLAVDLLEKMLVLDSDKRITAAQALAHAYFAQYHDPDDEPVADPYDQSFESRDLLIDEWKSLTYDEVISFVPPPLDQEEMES

MARK1 (human) = MARK1 (human) (UniProt Q9P0L2)
MINK1 (human) = MINK1 (human) (UniProt Q8N4C8)
MINK1 (human), sequence (Q8N4C8 whole entry, looked up): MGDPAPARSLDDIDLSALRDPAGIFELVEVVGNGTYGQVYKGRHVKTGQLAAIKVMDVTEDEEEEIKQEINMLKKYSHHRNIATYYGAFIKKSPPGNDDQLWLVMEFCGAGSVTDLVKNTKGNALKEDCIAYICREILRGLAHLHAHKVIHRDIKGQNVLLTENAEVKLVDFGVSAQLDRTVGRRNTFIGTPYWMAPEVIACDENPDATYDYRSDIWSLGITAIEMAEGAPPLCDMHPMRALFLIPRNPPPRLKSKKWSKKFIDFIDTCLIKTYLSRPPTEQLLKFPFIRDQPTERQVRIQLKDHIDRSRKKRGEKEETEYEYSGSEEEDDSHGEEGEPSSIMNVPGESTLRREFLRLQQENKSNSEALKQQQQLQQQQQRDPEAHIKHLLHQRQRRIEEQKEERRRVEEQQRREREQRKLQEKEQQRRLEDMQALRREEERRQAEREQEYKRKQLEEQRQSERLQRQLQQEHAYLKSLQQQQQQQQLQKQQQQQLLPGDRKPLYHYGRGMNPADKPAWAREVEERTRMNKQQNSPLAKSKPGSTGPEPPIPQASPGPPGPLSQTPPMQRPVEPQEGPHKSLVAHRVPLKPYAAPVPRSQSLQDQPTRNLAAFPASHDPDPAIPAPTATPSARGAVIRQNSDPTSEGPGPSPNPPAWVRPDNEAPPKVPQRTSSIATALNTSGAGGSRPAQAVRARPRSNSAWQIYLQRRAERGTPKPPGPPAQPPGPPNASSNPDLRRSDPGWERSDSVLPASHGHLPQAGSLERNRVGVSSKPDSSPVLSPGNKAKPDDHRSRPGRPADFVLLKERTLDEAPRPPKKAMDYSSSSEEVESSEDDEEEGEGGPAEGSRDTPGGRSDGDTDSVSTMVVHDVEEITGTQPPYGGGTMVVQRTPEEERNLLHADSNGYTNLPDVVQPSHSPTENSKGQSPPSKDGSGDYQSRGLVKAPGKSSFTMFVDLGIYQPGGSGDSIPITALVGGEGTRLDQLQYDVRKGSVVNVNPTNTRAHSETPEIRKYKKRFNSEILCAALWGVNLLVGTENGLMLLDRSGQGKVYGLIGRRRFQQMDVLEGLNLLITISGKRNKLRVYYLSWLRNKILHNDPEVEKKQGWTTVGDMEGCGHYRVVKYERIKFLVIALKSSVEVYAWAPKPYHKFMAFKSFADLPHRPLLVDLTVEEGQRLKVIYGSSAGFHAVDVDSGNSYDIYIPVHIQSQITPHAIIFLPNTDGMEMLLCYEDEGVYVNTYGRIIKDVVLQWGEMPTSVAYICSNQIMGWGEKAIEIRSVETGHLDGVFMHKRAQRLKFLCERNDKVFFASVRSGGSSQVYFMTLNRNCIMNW

MYO3B (human) = MYO3B (human) (UniProt Q8WXR4)
NEK2 (human) = NEK2 (human) (UniProt P51955)
NEK6 (human) = NEK6 (human) (UniProt Q9HC98)
NEK6 (human), sequence (Q9HC98 whole entry, looked up): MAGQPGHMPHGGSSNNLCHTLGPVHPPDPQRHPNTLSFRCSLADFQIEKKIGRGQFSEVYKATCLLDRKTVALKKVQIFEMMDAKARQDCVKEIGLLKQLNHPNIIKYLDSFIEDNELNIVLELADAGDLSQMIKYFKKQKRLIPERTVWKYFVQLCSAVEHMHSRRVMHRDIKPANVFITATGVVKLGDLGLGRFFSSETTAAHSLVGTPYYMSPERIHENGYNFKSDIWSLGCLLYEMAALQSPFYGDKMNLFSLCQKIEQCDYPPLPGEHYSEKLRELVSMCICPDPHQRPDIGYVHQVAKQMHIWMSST

NEK7 (human) = NEK7 (human) (UniProt Q8TDX7)
PAK2 (human) = PAK2 (human) (UniProt Q13177)
PAK2 (human), sequence (Q13177 whole entry, looked up): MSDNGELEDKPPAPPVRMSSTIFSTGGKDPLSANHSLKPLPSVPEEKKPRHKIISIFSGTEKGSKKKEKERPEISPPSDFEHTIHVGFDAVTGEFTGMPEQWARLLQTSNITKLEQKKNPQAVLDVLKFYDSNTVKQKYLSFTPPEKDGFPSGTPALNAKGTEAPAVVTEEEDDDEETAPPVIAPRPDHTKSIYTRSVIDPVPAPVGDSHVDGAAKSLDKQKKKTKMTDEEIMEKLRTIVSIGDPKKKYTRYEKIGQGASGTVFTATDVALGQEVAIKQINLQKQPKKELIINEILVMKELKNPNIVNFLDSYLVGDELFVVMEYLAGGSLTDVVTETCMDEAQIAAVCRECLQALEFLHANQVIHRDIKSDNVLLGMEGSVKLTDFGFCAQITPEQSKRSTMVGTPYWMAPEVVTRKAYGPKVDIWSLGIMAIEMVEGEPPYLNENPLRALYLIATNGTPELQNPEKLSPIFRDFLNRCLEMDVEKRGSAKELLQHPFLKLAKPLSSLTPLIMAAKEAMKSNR

PAK3 (human) = PAK3 (human) (UniProt O75914)
PKN1 (human) = PKN1 (human) (UniProt Q16512)
PLK1 (human) = PLK1 (human) (UniProt P53350)
PRKACG (human) = PRKACG (human) (UniProt P22612)
PRKCZ (human) = PRKCZ (human) (UniProt Q05513)
RIPK2 (human) = RIPK2 (human) (UniProt O43353)
SRPK1 (human) = SRPK1 (human) (UniProt Q96SB4)
SRPK3 (human) = SRPK3 (human) (UniProt Q9UPE1)
STK38 (human) = STK38 (human) (UniProt Q15208)
TAOK1 (human) = TAOK1 (human) (UniProt Q7L7X3)
TEC (human) = TEC (human) (UniProt P42680)
TLK2 (human) = TLK2 (human) (UniProt Q86UE8)

CAMK2D (human), sequence (Q13557 whole entry, looked up): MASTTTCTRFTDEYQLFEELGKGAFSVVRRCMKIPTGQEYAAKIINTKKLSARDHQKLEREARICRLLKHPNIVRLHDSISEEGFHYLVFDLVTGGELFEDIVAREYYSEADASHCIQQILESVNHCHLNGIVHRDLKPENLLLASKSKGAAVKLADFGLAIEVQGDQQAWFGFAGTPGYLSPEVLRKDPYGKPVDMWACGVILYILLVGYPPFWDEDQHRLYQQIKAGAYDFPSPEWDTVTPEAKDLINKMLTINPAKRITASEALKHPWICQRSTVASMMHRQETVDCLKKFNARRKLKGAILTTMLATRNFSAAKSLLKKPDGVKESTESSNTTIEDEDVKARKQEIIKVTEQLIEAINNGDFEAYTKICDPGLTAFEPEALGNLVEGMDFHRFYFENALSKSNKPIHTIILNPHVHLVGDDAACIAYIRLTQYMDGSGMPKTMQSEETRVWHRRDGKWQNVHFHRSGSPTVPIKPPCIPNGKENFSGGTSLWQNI
ACVR1B (human), sequence (P36896 whole entry, looked up): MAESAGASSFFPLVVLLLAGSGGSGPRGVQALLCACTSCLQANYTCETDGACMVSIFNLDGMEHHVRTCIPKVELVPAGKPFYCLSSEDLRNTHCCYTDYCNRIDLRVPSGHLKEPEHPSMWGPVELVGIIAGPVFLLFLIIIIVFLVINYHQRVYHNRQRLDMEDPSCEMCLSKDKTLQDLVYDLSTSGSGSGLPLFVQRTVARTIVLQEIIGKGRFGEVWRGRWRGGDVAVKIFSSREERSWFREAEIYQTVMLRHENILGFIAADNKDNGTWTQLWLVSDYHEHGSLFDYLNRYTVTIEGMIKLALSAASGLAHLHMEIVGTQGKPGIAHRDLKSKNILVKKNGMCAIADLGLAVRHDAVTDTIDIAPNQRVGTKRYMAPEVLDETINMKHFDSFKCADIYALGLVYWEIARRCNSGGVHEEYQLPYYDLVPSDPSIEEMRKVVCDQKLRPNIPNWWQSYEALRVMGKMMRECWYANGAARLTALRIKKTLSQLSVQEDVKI

residual activity (ACVR1 (human)): 92.5% | residual activity (ACVR1B (human)): 98.5% | residual activity (ACVRL1 (human)): 98% | residual activity (CAMK1D (human)): 82% | residual activity (CAMK2A (human)): 104% | residual activity (CAMK2D (human)): 100% | residual activity (CDK2 CCNA2 (human)): 97% | residual activity (CHUK (human)): 93% | residual activity (CLK4 (human)): 95.5% | residual activity (CSNK1A1 (human)): 97% | residual activity (CSNK1E (human)): 94.5% | residual activity (CSNK1G3 (human)): 98% | residual activity (DAPK2 (human)): 106% | residual activity (DYRK2 (human)): 204% | residual activity (EPHA1 (human)): 104% | residual activity (EPHA7 (human)): 91.5% | residual activity (FGFR2 (human)): 98.5% | residual activity (IKBKE (human)): 94.5% | residual activity (INSR (human)): 95.5% | residual activity (KDR (human)): 104% | residual activity (KIT (human)): 99% | residual activity (MAP2K2 (human)): 102% | residual activity (MAP2K6 (human)): 94.5% | residual activity (MAP3K11 (human)): 95% | residual activity (MAPK14 (human)): 100% | residual activity (MARK1 (human)): 95.5% | residual activity (MINK1 (human)): 106% | residual activity (MYO3B (human)): 92% | residual activity (NEK2 (human)): 103% | residual activity (NEK6 (human)): 95.5% | residual activity (NEK7 (human)): 99.5% | residual activity (PAK2 (human)): 97.5% | residual activity (PAK3 (human)): 93.5% | residual activity (PKN1 (human)): 89% | residual activity (PLK1 (human)): 98.5% | residual activity (PRKACG (human)): 100% | residual activity (PRKCZ (human)): 99.5% | residual activity (RIPK2 (human)): 95.5% | residual activity (SRPK1 (human)): 108% | residual activity (SRPK3 (human)): 98% | residual activity (STK38 (human)): 97% | residual activity (TAOK1 (human)): 91.5% | residual activity (TEC (human)): 81.5% | residual activity (TLK2 (human)): 101%
SMILES: CC[C@H](C)n1cc(C)c2c(C(=O)NCc3c(C)cc(C)[nH]c3=O)cc(-c3ccc(N4CCNCC4)nc3)cc21
